Here are results for 33 compounds from patent US7026339B2, “Inhibitors of HCV NS5B polymerase” (priority 2003, dated 2006).

This test relates to HuH-7 replicon cells 5–15 and 9–13 (HCV replication). Briefly: Inhibition of viral replication in HuH-7 replicon cells (HCV RNA / GAPDH RNA by multiplex RT-PCR). It is filed as cell-based. Conditions: Hepatitis C virus, 72 h; inhibiting 50% of replication; HuH-7 replicon cells, 3 days; read-out: IC50. The essentials: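 HCV and GAPDH RNA were measured by multiplex TaqMan RT-PCR (HCV 5′ untranslated region) after 3-day compound treatment at 37 °C, final 100 μM–1 μM in 1% DMSO. Cells were plated 24 h beforehand at 7×10^3/well. Read-out: HCV-to-GAPDH ratio expressed as percent control versus untreated cells.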

Structures are written as SMILES.

Regarding `CCCCCc1ccc(S(=O)(=O)Oc2ccccc2/C=N/NC(=O)Cc2cccc(OC)c2)cc1` [Compound 183, 2-((E)-{2-[2-(3-methoxyphenyl)acetyl]hydrazono}methyl)-phenyl 4-pentylbenzenesulfonate], the IC50 (usually the midpoint of a concentration-inhibition curve) was less than 5 µM.

For the compound `CCCc1ccc(S(=O)(=O)Oc2ccccc2/C=N/NC(=O)Cc2cccc(OC)c2)cc1` [Compound 184, 2-((E)-{2-[2-(3-methoxyphenyl)acetyl]hydrazono}methyl)-phenyl 4-propylbenzenesulfonate], the IC50 was less than 5 µM.

Regarding `COc1cccc(CC(=O)N/N=C/c2ncccc2OS(=O)(=O)c2ccc(C)cc2)c1` [Compound 185, 2-((E)-{2-[2-(3-methoxyphenyl)acetyl]hydrazono}methyl)-pyridin-3-yl 4-methylbenzenesulfonate], the IC50 was less than 5 µM.

As for `COc1cccc(CC(=O)N/N=C/c2ccccc2OS(=O)(=O)c2ccc(OC(C)C)cc2)c1` [Compound 186, 2-((E)-{2-[2-(3-methoxyphenyl)acetyl]hydrazono}methyl)-phenyl 4-isopropoxybenzenesulfonate], the IC50 was less than 5 µM.

For the compound `COc1cccc(CC(=O)N/N=C/c2ccccc2OS(=O)(=O)c2cc(Cl)sc2Cl)c1` [Compound 187, 2-((E)-{2-[2-(3-methoxyphenyl)acetyl]hydrazono}methyl)-phenyl 2,5-dichlorothiophene-3-sulfonate], the half-inhibitory concentration (IC50) was less than 5 µM.

On to `COc1cccc(CC(=O)N/N=C/c2ccccc2OS(=O)(=O)c2cnn(-c3ccccc3)c2C)c1` [Compound 188, 2-((E)-{2-[2-(3-methoxyphenyl)acetyl]hydrazono}methyl)-phenyl 5-methyl-1-phenyl-1H-pyrazole-4-sulfonate], for which the IC50 was less than 5 µM.

For `COc1cccc(CC(=O)N/N=C/c2ccccc2OS(=O)(=O)Cc2cccc(C(F)(F)F)c2)c1` [Compound 189, 2-((E)-{2-[2-(3-methoxyphenyl)acetyl]hydrazono}methyl)-phenyl [3-(trifluoromethyl)phenyl]methanesulfonate], the IC50 was greater than 50 µM.

With `COc1cccc(CC(=O)N/N=C/c2ccccc2OS(=O)(=O)c2ccc(Br)s2)c1` [Compound 190, 2-((E)-{2-[2-(3-methoxyphenyl)acetyl]hydrazono}methyl)-phenyl 5-bromothiophene-2-sulfonate], the concentration for half-maximal inhibition (IC50) is less than 5 µM.

As for `COc1cccc(CC(=O)N/N=C/c2ccccc2OS(=O)(=O)c2ccc(Oc3ccccc3)cc2)c1` [Compound 191, 2-((E)-{2-[2-(3-methoxyphenyl)acetyl]hydrazono}methyl)-phenyl 4-phenoxybenzenesulfonate], the IC50 is greater than 50 µM.

For the compound `COc1cccc(CC(=O)N/N=C/c2ccccc2OS(=O)(=O)c2ccc(-c3cc(C(F)(F)F)on3)s2)c1` [Compound 192, 2-((E)-{2-[2-(3-methoxyphenyl)acetyl]hydrazono}methyl)-phenyl 5-[5-(trifluoromethyl)isoxazol-3-yl]thiophene-2-sulfonate], the IC50 is less than 5 µM.

For the compound `COc1cccc(CC(=O)N/N=C/c2c(Cl)cccc2OS(=O)(=O)c2ccc(C(F)(F)F)cc2)c1` [Compound 193, 3-chloro-2-((E)-{[(3-methoxyphenyl)acetyl]hydrazono}methyl)-phenyl 4-(trifluoromethyl)benzenesulfonate], the IC50 is less than 5 µM.

For the compound `O=C(Cc1cccc(Cl)c1)N/N=C/c1c(Cl)cccc1OS(=O)(=O)c1ccc(C(F)(F)F)cc1` [Compound 194, 3-chloro-2-((E)-{[(3-chlorophenyl)acetyl]hydrazono}methyl)-phenyl 4-(trifluoromethyl)benzenesulfonate], the IC50 is less than 5 µM.

Consider `COc1cccc(CC(=O)N/N=C/c2ccccc2OS(=O)(=O)c2ccc(C(C)=O)cc2)c1` [Compound 195, 2-((E)-{2-[2-(3-methoxyphenyl)acetyl]hydrazono}methyl)-phenyl 4-acetylbenzenesulfonate], for which the 50% inhibitory concentration (IC50) was less than 5 µM.

Regarding `COc1cccc(CC(=O)N/N=C/c2ccccc2OS(=O)(=O)c2ccc(-n3cccn3)cc2)c1` [Compound 196, 2-((E)-{2-[2-(3-methoxyphenyl)acetyl]hydrazono}methyl)-phenyl 4-(1H-pyrazol-1-yl)benzenesulfonate], the IC50 was less than 5 µM.

For `COc1cccc(CC(=O)N/N=C/c2ccccc2OS(=O)(=O)c2ccc(-c3cnco3)cc2)c1` [Compound 197, 2-((E)-{2-[2-(3-methoxyphenyl)acetyl]hydrazono}methyl)-phenyl 4-(1,3-oxazol-5-yl)benzenesulfonate], the half-inhibitory concentration (IC50) was less than 5 µM.

Regarding `CCC(C)(C)c1ccc(S(=O)(=O)Oc2ccccc2/C=N/NC(=O)Cc2cccc(OC)c2)cc1` [Compound 198, 2-((E)-{2-[2-(3-methoxyphenyl)acetyl]hydrazono}methyl)-phenyl 4-(1,1-dimethylpropyl)benzenesulfonate], the IC50 is less than 5 µM.

Regarding `CCCCOc1ccc(S(=O)(=O)Oc2ccccc2/C=N/NC(=O)Cc2cccc(OC)c2)cc1` [Compound 199, 2-((E)-{2-[2-(3-methoxyphenyl)acetyl]hydrazono}methyl)-phenyl 4-butoxybenzenesulfonate], the IC50 was less than 5 µM.

On to `COc1cccc(CC(=O)N/N=C/c2ccccc2OS(=O)(=O)c2ccc(-c3cnco3)s2)c1` [Compound 200, 2-((E)-{2-[2-(3-methoxyphenyl)acetyl]hydrazono}methyl)-phenyl 5-(1,3-oxazol-5-yl)thiophene-2-sulfonate], for which the half-maximal inhibitory concentration (IC50) was less than 5 µM.

As to `COc1cccc(CC(=O)N/N=C/c2ccccc2OS(=O)(=O)c2ccc(Oc3ccccc3)nc2)c1` [Compound 201, 2-((E)-{2-[2-(3-methoxyphenyl)acetyl]hydrazono}methyl)-phenyl 6-phenoxypyridine-3-sulfonate], the IC50 was less than 5 µM.

Take `COc1cccc(CC(=O)N/N=C/c2ccccc2OS(=O)(=O)c2ccc(Oc3ccc(F)cc3)cc2)c1` [Compound 202, 2-((E)-{2-[2-(3-methoxyphenyl)acetyl]hydrazono}methyl)-phenyl 4-(4-fluorophenoxy)benzenesulfonate]: the IC50 is greater than 50 µM.

For `COc1cccc(CC(=O)N/N=C/c2c(C)cccc2OS(=O)(=O)c2ccc(C(F)(F)F)cc2)c1` [Compound 203, 2-((E)-{[(3-methoxyphenyl)acetyl]hydrazono}methyl)-3-methylphenyl 4-(trifluoromethyl)benzenesulfonate], the half-maximal inhibitory concentration (IC50) is less than 5 µM.

Turning to `COc1cccc(CC(=O)N/N=C/c2c(C)cccc2OS(=O)(=O)c2ccc(C)cc2)c1` [Compound 204, 2-((E)-{[(3-methoxyphenyl)acetyl]hydrazono}methyl)-3-methylphenyl 4-methylbenzenesulfonate], the half-inhibitory concentration (IC50) is less than 5 µM.

`Cc1ccc(S(=O)(=O)Oc2cccc(F)c2/C=N/NC(=O)Cc2cccc(Cl)c2)cc1` [Compound 205, 2-((E)-{[(3-chlorophenyl)acetyl]hydrazono}methyl)-3-fluorophenyl 4-methylbenzenesulfonate]: the IC50 is 5 to 50 µM.

On to `O=C(Cc1cccc(Cl)c1)N/N=C/c1c(F)cccc1OS(=O)(=O)c1ccc(C(F)(F)F)cc1` [Compound 206, 2-((E)-{[(3-chlorophenyl)acetyl]hydrazono}methyl)-3-fluorophenyl 4-(trifluoromethyl)benzenesulfonate], for which the half-inhibitory concentration (IC50) was less than 5 µM.

In the case of `COc1cccc(CC(=O)N/N=C/c2c(F)cccc2OS(=O)(=O)c2ccc(C(F)(F)F)cc2)c1` [Compound 207, 3-fluoro-2-((E)-{[(3-methoxyphenyl)acetyl]hydrazono}methyl)-phenyl 4-(trifluoromethyl)benzenesulfonate], the IC50 was less than 5 µM.

Turning to `COc1cccc(CC(=O)N/N=C/c2c(F)cccc2OS(=O)(=O)c2ccc(C)cc2)c1` [Compound 208, 3-fluoro-2-((E)-{[(3-methoxyphenyl)acetyl]hydrazono}methyl)-phenyl 4-methylbenzenesulfonate], the IC50 is 5 to 50 µM.

Turning to `COc1cccc(CC(=O)N/N=C/c2ccc(Cl)cc2OS(=O)(=O)c2ccc(C)cc2)c1` [Compound 209, 5-chloro-2-((E)-{[(3-methoxyphenyl)acetyl]hydrazono}methyl)-phenyl 4-methylbenzenesulfonate], the IC50 is less than 5 µM.

Consider `COc1cccc(CC(=O)N/N=C/c2ccc(Cl)cc2OS(=O)(=O)c2ccc(C(F)(F)F)cc2)c1` [Compound 210, 5-chloro-2-((E)-{[(3-methoxyphenyl)acetyl]hydrazono}methyl)-phenyl 4-(trifluoromethyl)benzenesulfonate], for which the IC50 lay in the range of 5 to 50 µM.

Take `O=C(Cc1cccc(Cl)c1)N/N=C/c1ccc(F)cc1OS(=O)(=O)c1ccc(C(F)(F)F)cc1` [Compound 211, 2-((E)-{[(3-chlorophenyl)acetyl]hydrazono}methyl)-5-fluorophenyl 4-(trifluoromethyl)benzenesulfonate]: the IC50 was 5 to 50 µM.

For the compound `Cc1ccc(S(=O)(=O)Oc2cc(F)ccc2/C=N/NC(=O)Cc2cccc(Cl)c2)cc1` [Compound 212, 2-((E)-{[(3-chlorophenyl)acetyl]hydrazono}methyl)-5-fluorophenyl 4-methylbenzenesulfonate], the concentration for half-maximal inhibition (IC50) was less than 5 µM.

In the case of `O=C(Cc1cccc(Cl)c1)N/N=C/c1ncccc1OS(=O)(=O)c1ccc(C(F)(F)F)cc1` [Compound 213, 2-((E)-{2-[2-(3-chlorophenyl)acetyl]hydrazono}methyl)-pyridin-3-yl 4-(trifluoromethyl)benzenesulfonate], the half-maximal inhibitory concentration (IC50) was in the range of 5 to 50 µM.

`COc1cccc(CC(=O)N/N=C/c2ncccc2OS(=O)(=O)c2ccc(C(F)(F)F)cc2)c1` [Compound 214, 2-((E)-{2-[2-(3-methoxyphenyl)acetyl]hydrazono}methyl)-pyridin-3-yl 4-(trifluoromethyl)benzenesulfonate]: the IC50 was in the range of 5 to 50 µM.

On to `O=C(Cc1cccc(Cl)c1)N/N=C/c1cccnc1OS(=O)(=O)c1ccc(C(F)(F)F)cc1` [Compound 215, 3-((E)-{2-[2-(3-chlorophenyl)acetyl]hydrazono}methyl)-pyridin-2-yl 4-(trifluoromethyl)benzenesulfonate], for which the IC50 is greater than 50 µM.
